Non-standard residues stand in square brackets, D forms with d. Residues, ends and D or L forms follow the SMILES beside them. *: point of attachment. Phe(4-CH2NH2) = NCc1ccc(C[C@H](N)C(=O)O)cc1; Phe(4-NH2) = Nc1ccc(C[C@H](N)C(=O)O)cc1; AEF = NCCOc1ccc(C[C@H](N)C(=O)O)cc1; Lys(Me2) = CN(C)CCCC[C@H](N)C(=O)O; Hydrocinnamoyl = O=C(CCc1ccccc1)*; Aad = N[C@@H](CCCC(=O)O)C(=O)O; Cit = NC(=O)NCCC[C@H](N)C(=O)O; NHPhenethyl = c1ccc(CCN*)cc1; hLys = NCCCCC[C@H](N)C(=O)O; PhAc = O=C(Cc1ccccc1)*

The test system of one assay is Zika virus. Description: Inhibition of 6-His tagged-G4SG4 fused ZIKV NS2B (49 to 95 residues) R95A mutant-NS3 (1 to 170 residue) R29G mutant expressed in Escherichia coli BL21 (DE3) using Bz-Nle-K-RR-AMC substrate at 50 uM preincubated for 10 mins followed by substrate addition and measured after 30 mins by fluorescence assay relative to control. The settings on record: time 40.0 min.
On to `N=C(N)NCCC[C@H](NC(=O)[C@H](CCCCN)NC(=O)[C@H](CCCC(N)=O)NC(=O)Cc1ccccc1)C(N)=O` (PhAc-[Aad](NH2)-Lys-Arg-NH2), for which the inhibition was 40%. Same read-out and setting: then `C[C@H](NC(=O)[C@H](CCCNC(=N)N)NC(=O)[C@H](CCCCN)NC(=O)[C@H](CCCCN)NC(=O)Cc1ccccc1)c1ccccc1`, with 50%.

Tested on in a further assay: not listed separately
Briefly: (§1) Inhibition of 6-His tagged-G4SG4 fused ZIKV NS2B (49 to 95 residues) R95A mutant-NS3 (1 to 170 residue) R29G mutant expressed in Escherichia coli BL21 (DE3) using Bz-Nle-K-RR-AMC substrate preincubated for 10 mins followed by substrate addition and measured after 30 mins by fluorescence assay.
Details: not given
More on the design: species or system Zika virus.
`N=C(N)NCCC[C@H](NC(=O)[C@H](CCCCN)NC(=O)[C@H](CCCCN)NC(=O)Cc1ccccc1)C(N)=O` (PhAc-Lys-Lys-Arg-NH2): the 50% inhibitory concentration (IC50) was found to be 3 µM and the affinity corresponds to a Ki of 2.4 µM. Compound `N=C(N)NCCC[C@H](NC(=O)c1cccs1)C(=O)N[C@@H](CCCCN)C(=O)N[C@H](C(N)=O)c1ccc(OCCN2CCOCC2)cc1` showed an IC50 of 22 µM. The same measure, in the same setting: then `NCCCC[C@H](NC(=O)Cc1ccccc1)C(=O)N[C@@H](CCCCN)C(=O)N[C@H](C(=O)NCc1ccc2c(c1)OCO2)c1ccc(OCc2ccc(C(F)(F)F)cc2)cc1`, with 0.06 µM; and `N=C(N)NCCC[C@H](NC(=O)[C@H](CC1CCNCC1)NC(=O)[C@H](CCCCN)NC(=O)Cc1ccccc1)C(N)=O`, with 12.2 µM.

In the case of `N=C(N)NCCC[C@H](NC(=O)[C@H](CCCCN)NC(=O)[C@H](CCCCN)NC(=O)Cc1nccs1)C(N)=O`, the IC50 amounted to 22.7 µM. The same measure, in the same setting: then `N=C(N)NCCC[C@H](NC(=O)c1cccs1)C(=O)N[C@@H](CCCCN)C(=O)N[C@H](C(N)=O)c1ccc(OCc2ncco2)cc1`, with more than 100 µM; and `N=C(N)NCCC[C@H](NC(=O)c1cccs1)C(=O)N[C@@H](CCCCN)C(=O)N[C@H](C(N)=O)c1ccc(OCCN2CCCCC2)cc1`, with 3 µM. Compound `CN(C)Cc1ccc(CNC(=O)[C@H](CCCNC(=N)N)NC(=O)[C@H](CCCCN)NC(=O)[C@H](CCCCN)NC(=O)Cc2ccccc2)cc1` yielded a half-maximal inhibitory concentration (IC50) of 2.8 µM.

For `N=C(N)NCCC[C@H](NC(=O)[C@H](Cc1ccc(N)cc1)NC(=O)[C@H](CCCCN)NC(=O)Cc1ccccc1)C(N)=O` (PhAc-Lys-[Phe(4-NH2)]-Arg-NH2), the IC50 was more than 100 µM.

In turn, `N=C(N)NCCC[C@H](NC(=O)[C@H](CCCCN)NC(=O)[C@H](CCCCN)NC(=O)Cc1ccccc1)C(=O)O` (PhAc-Lys-Lys-Arg-OH) gave an IC50 of 41 µM.

In turn, `N=C(N)NCCC[C@H](NC(=O)[C@H](Cc1ccc(OCCN)cc1)NC(=O)[C@H](CCCCN)NC(=O)Cc1ccccc1)C(N)=O` (PhAc-Lys-[AEF]-Arg-NH2) showed a half-maximal inhibitory concentration (IC50) of more than 100 µM. In turn, `N=C(N)NCC[C@H](NC(=O)[C@H](CCCCN)NC(=O)[C@H](CCCCN)NC(=O)Cc1ccc(Cl)c(Cl)c1)C(=O)NCC1CCCCC1` had an IC50 of 1.7 µM. Same read-out and setting: the figure for `N=C(N)NCCC[C@H](NC(=O)c1cccs1)C(=O)N[C@@H](CCCCN)C(=O)N[C@H](C(N)=O)c1ccc(OCCc2ccccc2)cc1` is 9.4 µM. Still for that read-out and setting: then `N=C(N)NCCC[C@H](NC(=O)[C@H](CCCCN)NC(=O)[C@H](CCCCN)NC(=O)Cc1ccccc1)C(=O)NCc1cccnc1`, with 10.4 µM; and `CN1CCC(CNC(=O)[C@H](CCCNC(=N)N)NC(=O)[C@H](CCCCN)NC(=O)[C@H](CCCCN)NC(=O)Cc2ccccc2)CC1`, with 7.8 µM; and `N=C(N)NCCC[C@H](NC(=O)[C@H](CCCCN)NC(=O)[C@H](CCCCN)NC(=O)CCc1ccccc1)C(N)=O` (Hydrocinnamoyl-Lys-Lys-Arg-NH2), with 9.35 µM. On the same count and under the same terms, then `N=C(N)NCCC[C@H](NC(=O)c1cccs1)C(=O)N[C@@H](CCCCN)C(=O)N[C@H](C(=O)NCc1ccccc1)c1ccc(OCc2ccc(C(F)(F)F)cc2)cc1`, with 0.31 µM; and `N=C(N)NCCC[C@H](NC(=O)[C@H](CCCCN)NC(=O)[C@H](CCCCN)NC(=O)Cc1ccccc1)C(=O)NCc1ccncc1`, with 14.1 µM; and `N=C(N)NCCC[C@H](NC(=O)[C@H](CCCNC(N)=O)NC(=O)[C@H](CCCCN)NC(=O)Cc1ccccc1)C(N)=O` (PhAc-Lys-[Cit]-Arg-NH2), with more than 100 µM. `CC(=O)N[C@@H](CCCCN)C(=O)N[C@@H](CCCCN)C(=O)N[C@@H](CCCNC(=N)N)C(N)=O` (Ac-Lys-Lys-Arg-NH2) returned a concentration for half-maximal inhibition (IC50) of 8.4 µM.

In turn, `N=C(N)NCCC[C@H](NC(=O)c1cccs1)C(=O)N[C@@H](CCCCN)C(=O)N[C@H](C(N)=O)c1ccc(OCc2ccc(C(F)(F)F)cc2)cc1` yielded an IC50 of 2.5 µM. `N=C(N)NCCC[C@H](NC(=O)[C@H](CCCCCN)NC(=O)[C@H](CCCCN)NC(=O)Cc1ccccc1)C(N)=O` (PhAc-Lys-[hLys]-Arg-NH2) came in with an IC50 of 2.7 µM. Same read-out and setting: then `NCCCC[C@H](NC(=O)Nc1ccccc1)C(=O)N[C@@H](CCCCN)C(=O)N[C@H](C(=O)NCc1ccccc1)c1ccc(OCc2ccc(C(F)(F)F)cc2)cc1`, with 0.16 µM; and `NCCCC[C@H](NC(=O)Cc1ccccc1)C(=O)N[C@@H](CCCCN)C(=O)N[C@H](C(=O)NCc1cc(Cl)cc(Cl)c1)c1ccccc1`, with 0.32 µM; and `N#Cc1ccc(COc2ccc([C@H](NC(=O)[C@H](CCCCN)NC(=O)[C@H](CCCNC(=N)N)NC(=O)c3cccs3)C(N)=O)cc2)cc1`, with 27.3 µM. On the same count and under the same terms, the figure for `CN(Cc1ccccc1)C(=O)N[C@@H](CCCCN)C(=O)N[C@@H](CCCCN)C(=O)N[C@@H](CCCNC(=N)N)C(N)=O` is 7.4 µM; for `N=C(N)NCCC[C@H](NC(=O)[C@H](CCCCN)NC(=O)[C@H](CCCCN)NC(=O)Cc1ccccc1)C(=O)NCCc1ccccc1` (PhAc-Lys-Lys-Arg-NHPhenethyl) it is 11.6 µM. Same read-out and setting: then `NCCCC[C@H](NC(=O)Cc1ccccc1)C(=O)N[C@@H](CCCCN)C(=O)N[C@H](C(=O)NC1Cc2ccccc2C1)c1ccc(OCc2ccc(C(F)(F)F)cc2)cc1`, with 2 µM. Turning to `NCCCC[C@H](NC(=O)Cc1ccccc1)C(=O)N[C@@H](CCCCN)C(=O)N[C@H](C(=O)NCc1ccccc1)c1ccccc1`, inhibition was half-maximal at 0.55 µM (IC50).

As for `NCCCC[C@H](NC(=O)Cc1ccccc1)C(=O)N[C@@H](CCCCN)C(=O)N[C@H](C(=O)NCc1cccc(OCc2ccc(C(F)(F)F)cc2)c1)c1ccccc1`, half-maximal inhibition (IC50) required 0.24 µM. As for `N=C(N)NCCC[C@H](NC(=O)Cc1ccccc1)C(=O)N[C@@H](CCCCN)C(=O)N[C@H](C(N)=O)c1ccc(OCc2ccc(C(F)(F)F)cc2)cc1`, the IC50 was 31.8 µM. `CN(C)CCCC[C@H](NC(=O)[C@H](CCCCN)NC(=O)Cc1ccccc1)C(=O)N[C@@H](CCCNC(=N)N)C(N)=O` (PhAc-Lys-[Lys(Me2)]-Arg-NH2) had an IC50 of 25.1 µM.

`N=C(N)NCCC[C@H](NC(=O)[C@H](CCCCN)NC(=O)[C@H](CCCCN)NC(=O)Cc1ccncc1)C(N)=O` gave an IC50 of 5.2 µM. Still for that read-out and setting: the figure for `NCCCC[C@H](NC(=O)Cc1ccccc1)C(=O)N[C@@H](CCCCN)C(=O)N[C@H](C(=O)NCC1CCNCC1)c1ccc(OCc2ccc(C(F)(F)F)cc2)cc1` is 0.35 µM; for `N=C(N)NCCC[C@H](NC(=O)c1cccs1)C(=O)N[C@@H](CCCCN)C(=O)NC(C(N)=O)c1cccc(OCc2ccc(C(F)(F)F)cc2)c1` (mixture of isomers) it is 6.4 µM; for `NCCCC[C@H](NC(=O)Cc1ccccc1)C(=O)N[C@@H](CCCCN)C(=O)N[C@H](C(N)=O)c1ccccc1` it is 7 µM. The compound `CN(C)CCOc1ccc([C@H](NC(=O)[C@H](CCCCN)NC(=O)[C@H](CCCNC(=N)N)NC(=O)c2cccs2)C(N)=O)cc1` displayed a concentration for half-maximal inhibition (IC50) of 5.5 µM. Same read-out and setting: the figure for `NCCCC[C@H](NC(=O)Cc1ccccc1)C(=O)N[C@@H](CCCCN)C(=O)N[C@H](C(=O)NCc1ccc(O)cc1)c1ccccc1` is 0.37 µM; for `N=C(N)NCCC[C@H](NC(=O)c1cccs1)C(=O)N[C@@H](CCCCN)C(=O)N[C@@H](C(=O)NCc1ccccc1)c1ccc(OCc2ccc(C(F)(F)F)cc2)cc1` it is 0.92 µM. The same measure, in the same setting: then `NCCCC[C@H](NC(=O)Cc1ccccc1)C(=O)N[C@@H](CCCCN)C(=O)N[C@H](C(=O)NCc1cccnc1)c1ccc(OCc2ccc(C(F)(F)F)cc2)cc1`, with 0.28 µM.

The next assay deals with Zika virus. The assay is described as §1. The settings on record: time 40.0 min.
For the compound `N=C(N)NCCC[C@H](NC(=O)[C@H](CCCCN)NC(=O)[C@H](CCCCN)NC(=O)Cc1ccccc1)C(N)=O` (PhAc-Lys-Lys-Arg-NH2), the 10% effect concentration (IC10) was determined as 0.3 µM and the 80% effect level (IC80) was put at 10 µM.

A further assay has as its system Zika virus. Description: Inhibition of 6-His tagged-G4SG4 fused ZIKV NS2B (49 to 95 residues) R95A mutant-NS3 (1 to 170 residue) R29G mutant expressed in Escherichia coli BL21 (DE3) using Bz-Nle-K-RR-AMC substrate at 100 uM preincubated for 10 mins followed by substrate addition and measured after 30 mins by fluorescence assay relative to control. As to conditions: time 40.0 min.
Take `CC(=O)N[C@H](C(=O)NCC(=O)N[C@@H](CCCCN)C(=O)N[C@@H](CCCNC(=N)N)C(N)=O)[C@@H](C)O` (Ac-TGKR-NH2): the inhibition amounted to 40%. Still for that read-out and setting: then `CC(=O)N[C@H](C(=O)NCC(=O)N[C@@H](CCCCN)C(=O)N[C@@H](CCCNC(=N)N)C(=O)O)[C@@H](C)O` (Ac-TGKR-OH), with 40%; and `N=C(N)NCCC[C@H](NC(=O)[C@H](CCCCN)NC(=O)CNC(=O)Cc1ccccc1)C(=O)O` (PhAc-Gly-Lys-Arg-OH), with 40%. `N=C(N)NCCC[C@H](NC(=O)[C@H](CCCCN)NC(=O)CNC(=O)Cc1ccccc1)C(N)=O` (PhAc-Gly-Lys-Arg-NH2) displayed an inhibition of 40%. The same measure, in the same setting: then `N=C(N)NCCC[C@H](NC(=O)[C@H](Cc1ccc(CN)cc1)NC(=O)[C@H](CCCCN)NC(=O)Cc1ccccc1)C(N)=O` (PhAc-Lys-[Phe(4-CH2NH2)]-Arg-NH2), with 66%.

What is called inhibition is the drop in the measured response relative to a control, in per cent. Lower therefore signals a response near the control. As usually defined, the IC50 is the concentration needed to halve the response being measured. A lower IC50 goes with higher potency. The term Ki denotes the dissociation constant of the complex between target and ligand, obtained from inhibition or displacement. A higher Ki goes with a looser hold on the target. By IC10 is commonly meant the point of the concentration-response curve where the effect stands at 10%. Lower therefore signals an effect from little substance. The IC80 is the concentration at which the effect reaches the 80% level.

For the origin of these results see ChEMBL document CHEMBL5154725, “SAR evolution towards potent C-terminal carboxamide peptide inhibitors of Zika virus NS2B-NS3 protease” (Bioorg Med Chem, 2022).
